# From patent US20260166128A1, “HUMAN AMYLIN ANALOG, AND DERIVATIVE THEREOF AND USE THEREOF” (priority 2022, published 2026)
# Numbered stars: 1 amine (or outer) side, 2 acyl side, 3 side chain; on linkers, the order of the positions; unused ones are H or OH. Bridge positions count the residues as written; N and C are the ends. Square brackets hold non-standard residues; d marks the D form. Side chains are listed from the residue outwards. Peptide text beside a SMILES is read from it. * marks the point of attachment. C20 diacid = O=C(O)CCCCCCCCCCCCCCCCCCC(=O)*; C18 diacid = O=C(O)CCCCCCCCCCCCCCCCC(=O)*; γGlu = O=C(O)[C@H](CCC(=O)[*:2])N[*:1]; Hyp = O=C(O)[C@@H]1C[C@@H](O)CN1; AEEA = NCCOCCOCC(=O)O
# Molecular target: T1, human amylin receptor (Homo sapiens, UniProt O60896+P30988)
# T1 construct: host or cells: CHO-K1/Ga15/AMY3 cells, further stably transfected with a CRE-luciferase plasmid
# T1 sequence (P30988 25-474): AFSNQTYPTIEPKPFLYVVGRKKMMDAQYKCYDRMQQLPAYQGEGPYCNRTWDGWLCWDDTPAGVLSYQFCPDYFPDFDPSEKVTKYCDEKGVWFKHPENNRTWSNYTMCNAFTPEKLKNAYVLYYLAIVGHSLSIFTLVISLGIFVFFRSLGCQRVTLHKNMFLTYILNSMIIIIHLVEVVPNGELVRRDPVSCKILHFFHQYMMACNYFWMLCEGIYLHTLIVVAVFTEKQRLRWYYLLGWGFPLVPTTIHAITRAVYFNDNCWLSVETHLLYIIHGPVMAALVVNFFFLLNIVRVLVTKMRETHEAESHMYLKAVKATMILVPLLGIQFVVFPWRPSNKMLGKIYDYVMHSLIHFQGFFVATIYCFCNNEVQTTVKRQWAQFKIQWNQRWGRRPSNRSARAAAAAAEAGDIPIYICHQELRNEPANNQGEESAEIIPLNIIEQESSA
# T1 sequence (O60896 24-148 partner): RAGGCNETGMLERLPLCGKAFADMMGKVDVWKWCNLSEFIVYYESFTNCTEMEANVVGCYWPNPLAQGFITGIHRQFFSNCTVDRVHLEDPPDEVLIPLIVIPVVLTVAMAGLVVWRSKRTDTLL
# Assay: Luciferase assay of amylin derivatives in amylin receptor/CRE-luc CHO cell line
# Assay type: cell-based
# Conditions: CHO-K1/Ga15/AMY3 CRE-luc cells, 24 hours incubation, F12 medium containing 10% FBS; read-out: EC50
# Method: The experiment was intended to detect the activity or efficacy of the amylin derivatives on a human amylin receptor in vitro by luciferase assay.
# 50 μL of growth medium (F12 medium containing 10% FBS) was added into each well of a white 96-well plate, and the stably transfected amylin/CRE-lue CHO cells were inoculated into the white 96-well plate at a density of about 20,000 cells/well for activity determination.
row,Structure (SMILES),EC50 [nM]
1,CC[C@H](C)[C@H](NC(=O)[C@H](CCCCNC(=O)COCCOCCNC(=O)COCCOCCNC(=O)CC[C@H](NC(=O)CCCCCCCCCCCCCCCCC(=O)O)C(=O)O)NC(=O)CNC(=O)[C@H](CC(C)C)NC(=O)[C@H](CC(N)=O)NC(=O)[C@H](CC(N)=O)NC(=O)[C@H](CO)NC(=O)[C@H](CO)NC(=O)[C@H](Cc1c[nH]cn1)NC(=O)[C@H](CCCNC(=N)N)NC(=O)[C@H](CC(C)C)NC(=O)[C@H](Cc1ccccc1)NC(=O)[C@H](CC(=O)O)NC(=O)[C@H](C)NC(=O)[C@H](CC(C)C)NC(=O)[C@H](CCCNC(=N)N)NC(=O)[C@H](CCC(N)=O)NC(=O)[C@@H](NC(=O)[C@H](C)NC(=O)[C@@H]1CSSC[C@H](NC(=O)[C@@H](N)CCCNC(=N)N)C(=O)N[C@@H](CC(N)=O)C(=O)N[C@@H]([C@@H](C)O)C(=O)N[C@@H](C)C(=O)N[C@@H]([C@@H](C)O)C(=O)N1)[C@@H](C)O)C(=O)N[C@@H](CC(C)C)C(=O)N1CCC[C@H]1C(=O)N1CCC[C@H]1C(=O)N[C@H](C(=O)N[C@@H](CC(N)=O)C(=O)N[C@H](C(=O)NCC(=O)N[C@@H](CO)C(=O)N[C@@H](CC(N)=O)C(=O)N[C@H](C(=O)N1C[C@H](O)C[C@H]1C(N)=O)[C@@H](C)O)C(C)C)[C@@H](C)O [PD105] (H-RCNTATCATQRLADFLRHSSNNLGK([AEEA-AEEA-γGlu-C18 diacid])ILPPTNVGSNT[Hyp]-NH2; disulfide 2-7),0.033
2,CC[C@H](C)[C@H](NC(=O)[C@@H]1CCCN1C(=O)[C@H](CCCCNC(=O)CC[C@H](NC(=O)CCCCCCCCCCCCCCCCC(=O)O)C(=O)O)NC(=O)[C@H](CC(C)C)NC(=O)[C@H](CC(N)=O)NC(=O)[C@H](CC(N)=O)NC(=O)[C@H](CO)NC(=O)[C@H](CO)NC(=O)[C@H](Cc1c[nH]cn1)NC(=O)[C@H](CCCNC(=N)N)NC(=O)[C@H](CC(C)C)NC(=O)[C@H](Cc1ccccc1)NC(=O)[C@H](CC(=O)O)NC(=O)[C@H](C)NC(=O)[C@H](CC(C)C)NC(=O)[C@H](CCCNC(=N)N)NC(=O)[C@H](CCC(N)=O)NC(=O)[C@@H](NC(=O)[C@H](C)NC(=O)[C@@H]1CSSC[C@H](NC(=O)[C@@H](N)CCCNC(=N)N)C(=O)N[C@@H](CC(N)=O)C(=O)N[C@@H]([C@@H](C)O)C(=O)N[C@@H](C)C(=O)N[C@@H]([C@@H](C)O)C(=O)N1)[C@@H](C)O)C(=O)N[C@@H](CC(C)C)C(=O)N1CCC[C@H]1C(=O)N1CCC[C@H]1C(=O)N[C@H](C(=O)N[C@@H](CC(N)=O)C(=O)N[C@H](C(=O)NCC(=O)N[C@@H](CO)C(=O)N[C@@H](CC(N)=O)C(=O)N[C@H](C(=O)N1C[C@H](O)C[C@H]1C(N)=O)[C@@H](C)O)C(C)C)[C@@H](C)O [PD107] (H-RCNTATCATQRLADFLRHSSNNLK([γGlu-C18 diacid])PILPPTNVGSNT[Hyp]-NH2; disulfide 2-7),0.027
3,CC[C@H](C)[C@H](NC(=O)[C@@H]1CCCN1C(=O)CNC(=O)[C@H](CCCCNC(=O)COCCOCCNC(=O)CC[C@H](NC(=O)CCCCCCCCCCCCCCCCC(=O)O)C(=O)O)NC(=O)[C@H](CC(N)=O)NC(=O)[C@H](CC(N)=O)NC(=O)[C@H](CO)NC(=O)[C@H](CO)NC(=O)[C@H](Cc1c[nH]cn1)NC(=O)[C@H](CCCNC(=N)N)NC(=O)[C@H](CC(C)C)NC(=O)[C@H](Cc1ccccc1)NC(=O)[C@H](CC(=O)O)NC(=O)[C@H](C)NC(=O)[C@H](CC(C)C)NC(=O)[C@H](CCCNC(=N)N)NC(=O)[C@H](CCC(N)=O)NC(=O)[C@@H](NC(=O)[C@H](C)NC(=O)[C@@H]1CSSC[C@H](NC(=O)[C@@H](N)CCCNC(=N)N)C(=O)N[C@@H](CC(N)=O)C(=O)N[C@@H]([C@@H](C)O)C(=O)N[C@@H](C)C(=O)N[C@@H]([C@@H](C)O)C(=O)N1)[C@@H](C)O)C(=O)N[C@@H](CC(C)C)C(=O)N1CCC[C@H]1C(=O)N1CCC[C@H]1C(=O)N[C@H](C(=O)N[C@@H](CC(N)=O)C(=O)N[C@H](C(=O)NCC(=O)N[C@@H](CO)C(=O)N[C@@H](CC(N)=O)C(=O)N[C@H](C(=O)N1C[C@H](O)C[C@H]1C(N)=O)[C@@H](C)O)C(C)C)[C@@H](C)O [PD111] (H-RCNTATCATQRLADFLRHSSNNK([AEEA-γGlu-C18 diacid])GPILPPTNVGSNT[Hyp]-NH2; disulfide 2-7),0.008

# Second part, the compound after the results:
row,EC50 [nM],Structure (SMILES)
1,0.026,CC[C@H](C)[C@H](NC(=O)[C@@H]1CCCN1C(=O)[C@H](CCCCNC(=O)COCCOCCNC(=O)CC[C@H](NC(=O)CCCCCCCCCCCCCCCCCCC(=O)O)C(=O)O)NC(=O)[C@H](CC(C)C)NC(=O)[C@H](CC(N)=O)NC(=O)[C@H](CC(N)=O)NC(=O)[C@H](CO)NC(=O)[C@H](CO)NC(=O)[C@H](Cc1c[nH]cn1)NC(=O)[C@H](CCCNC(=N)N)NC(=O)[C@H](CC(C)C)NC(=O)[C@H](Cc1ccccc1)NC(=O)[C@H](CC(=O)O)NC(=O)[C@H](C)NC(=O)[C@H](CC(C)C)NC(=O)[C@H](CCCNC(=N)N)NC(=O)[C@H](CCC(N)=O)NC(=O)[C@@H](NC(=O)[C@H](C)NC(=O)[C@@H]1CSSC[C@H](NC(=O)[C@@H](N)CCCNC(=N)N)C(=O)N[C@@H](CC(N)=O)C(=O)N[C@@H]([C@@H](C)O)C(=O)N[C@@H](C)C(=O)N[C@@H]([C@@H](C)O)C(=O)N1)[C@@H](C)O)C(=O)N[C@@H](CC(C)C)C(=O)N1CCC[C@H]1C(=O)N1CCC[C@H]1C(=O)N[C@H](C(=O)N[C@@H](CC(N)=O)C(=O)N[C@H](C(=O)NCC(=O)N[C@@H](CO)C(=O)N[C@@H](CC(N)=O)C(=O)N[C@H](C(=O)N1C[C@H](O)C[C@H]1C(N)=O)[C@@H](C)O)C(C)C)[C@@H](C)O [PD106] (H-RCNTATCATQRLADFLRHSSNNLK([AEEA-γGlu-C20 diacid])PILPPTNVGSNT[Hyp]-NH2; disulfide 2-7)
2,0.01,CC[C@H](C)[C@H](NC(=O)[C@@H]1CCCN1C(=O)[C@H](CCCCNC(=O)COCCOCCNC(=O)COCCOCCNC(=O)CC[C@H](NC(=O)CCCCCCCCCCCCCCCCC(=O)O)C(=O)O)NC(=O)[C@H](CC(C)C)NC(=O)[C@H](CC(N)=O)NC(=O)[C@H](CC(N)=O)NC(=O)[C@H](CO)NC(=O)[C@H](CO)NC(=O)[C@H](Cc1c[nH]cn1)NC(=O)[C@H](CCCNC(=N)N)NC(=O)[C@H](CC(C)C)NC(=O)[C@H](Cc1ccccc1)NC(=O)[C@H](CC(=O)O)NC(=O)[C@H](C)NC(=O)[C@H](CC(C)C)NC(=O)[C@H](CCCNC(=N)N)NC(=O)[C@H](CCC(N)=O)NC(=O)[C@@H](NC(=O)[C@H](C)NC(=O)[C@@H]1CSSC[C@H](NC(=O)[C@@H](N)CCCNC(=N)N)C(=O)N[C@@H](CC(N)=O)C(=O)N[C@@H]([C@@H](C)O)C(=O)N[C@@H](C)C(=O)N[C@@H]([C@@H](C)O)C(=O)N1)[C@@H](C)O)C(=O)N[C@@H](CC(C)C)C(=O)N1CCC[C@H]1C(=O)N1CCC[C@H]1C(=O)N[C@H](C(=O)N[C@@H](CC(N)=O)C(=O)N[C@H](C(=O)NCC(=O)N[C@@H](CO)C(=O)N[C@@H](CC(N)=O)C(=O)N[C@H](C(=O)N1C[C@H](O)C[C@H]1C(N)=O)[C@@H](C)O)C(C)C)[C@@H](C)O [PD109] (H-RCNTATCATQRLADFLRHSSNNLK([AEEA-AEEA-γGlu-C18 diacid])PILPPTNVGSNT[Hyp]-NH2; disulfide 2-7)
3,0.039,CC[C@H](C)[C@H](NC(=O)[C@@H]1CCCN1C(=O)CNC(=O)[C@H](CCCCNC(=O)COCCOCCNC(=O)CC[C@H](NC(=O)CCCCCCCCCCCCCCCCCCC(=O)O)C(=O)O)NC(=O)[C@H](CC(N)=O)NC(=O)[C@H](CC(N)=O)NC(=O)[C@H](CO)NC(=O)[C@H](CO)NC(=O)[C@H](Cc1c[nH]cn1)NC(=O)[C@H](CCCNC(=N)N)NC(=O)[C@H](CC(C)C)NC(=O)[C@H](Cc1ccccc1)NC(=O)[C@H](CC(=O)O)NC(=O)[C@H](C)NC(=O)[C@H](CC(C)C)NC(=O)[C@H](CCCNC(=N)N)NC(=O)[C@H](CCC(N)=O)NC(=O)[C@@H](NC(=O)[C@H](C)NC(=O)[C@@H]1CSSC[C@H](NC(=O)[C@@H](N)CCCNC(=N)N)C(=O)N[C@@H](CC(N)=O)C(=O)N[C@@H]([C@@H](C)O)C(=O)N[C@@H](C)C(=O)N[C@@H]([C@@H](C)O)C(=O)N1)[C@@H](C)O)C(=O)N[C@@H](CC(C)C)C(=O)N1CCC[C@H]1C(=O)N1CCC[C@H]1C(=O)N[C@H](C(=O)N[C@@H](CC(N)=O)C(=O)N[C@H](C(=O)NCC(=O)N[C@@H](CO)C(=O)N[C@@H](CC(N)=O)C(=O)N[C@H](C(=O)N1C[C@H](O)C[C@H]1C(N)=O)[C@@H](C)O)C(C)C)[C@@H](C)O [PD110] (H-RCNTATCATQRLADFLRHSSNNK([AEEA-γGlu-C20 diacid])GPILPPTNVGSNT[Hyp]-NH2; disulfide 2-7)
